# According to ChEMBL document CHEMBL5331134, “Identification of Brain-Penetrant ATP-Competitive mTOR Inhibitors for CNS Syndromes” (J Med Chem, 2023):
# What was measured:
# [1] = Drug concentration in C57BL/6 mouse plasma at 10 mg/kg, po measured after 3 hrs; assay type: ADME, organism-based
# [2] = Phototoxicity against mouse BALB/3T3 clone A31 cells assessed as reduction in cell viability incubated for 1 hr followed by irradiated with 5 J/cm^2 of light dose measured after 24 hrs by neutral red uptake assay; assay type: toxicity, cell-based; conditions: balb/3t3 clone a31, 1 h
# [3] = Cmax in Sprague-Dawley rat at 3 mg/kg, po measured upto 24 hrs by HPLC-MS analysis; assay type: ADME, organism-based; parameters: dose 3 mg/kg, time < 24 hrs, route po; conditions: in vivo
# [4] = Drug concentration in C57BL/6 mouse brain at 30 mg/kg, po measured after 3 hrs; assay type: ADME, organism-based; conditions: read-out: Ct
# [5] = AUC(0 to t) in Sprague-Dawley rat at 3 mg/kg, po measured upto 24 hrs by HPLC-MS analysis; assay type: ADME, organism-based; parameters: dose 3 mg/kg, time < 24 hrs, route po; conditions: in vivo
# [6] = Drug concentration in C57BL/6 mouse plasma at 30 mg/kg, po measured after 24 hrs; assay type: ADME, organism-based
# [7] = Volume of distribution at steady state in C57BL/6 mouse at 1 mg/kg, iv and 3 mg/kg, ip measured upto 24 hrs by HPLC-MS analysis; assay type: ADME, organism-based; conditions: in vivo, read-out: Vdss
# [8] = Ratio of drug concentration in brain to plasma in C57BL/6 mouse at 30 mg/kg, po measured at 3 hrs; assay type: ADME, organism-based; conditions: read-out: BPR
# [9] = Tmax in Sprague-Dawley rat at 3 mg/kg, po and 1 mg/kg, iv measured upto 24 hrs by HPLC-MS analysis; assay type: ADME, organism-based; conditions: in vivo
# [10] = Cmax in po dosed C57BL/6 mouse measured upto 24 hrs by HPLC-MS analysis; assay type: ADME, organism-based; parameters: time < 24 hrs, route po; conditions: in vivo
# [11] = Metabolic stability in rat liver microsomes assessed as intrinsic clearance at 1 uM incubated for 30 mins in presence of NADPH by LC-MS/MS analysis; assay type: ADME, Microsome; conditions: read-out: CLH
# [12] = Metabolic stability in human liver microsomes assessed as intrinsic clearance at 1 uM incubated for 30 mins in presence of NADPH by LC-MS/MS analysis; assay type: ADME, Microsome; conditions: read-out: CLH
# [13] = Plasma protein binding in C57BL/6 mouse plasma at 5 uM measured for 4 hrs by equilibrium dialysis method based LC/MS/MS analysis; assay type: ADME, cell-free; conditions: read-out: PPB (converted)
# [14] = Drug concentration in C57BL/6 mouse plasma at 30 mg/kg, po measured after 3 hrs; assay type: ADME, organism-based
# [15] = AUC(0 to t) in Sprague-Dawley rat at 1 mg/kg, iv measured upto 24 hrs by HPLC-MS analysis; assay type: ADME, organism-based; parameters: dose 1 mg/kg, time < 24 hrs, route iv; conditions: in vivo
# [16] = Metabolic stability in mouse liver microsomes assessed as intrinsic clearance at 1 uM incubated for 30 mins in presence of NADPH by LC-MS/MS analysis; assay type: ADME, Microsome; conditions: read-out: CLH
# [17] = Drug concentration in C57BL/6 mouse brain at 30 mg/kg, po measured after 1 hr; assay type: ADME, organism-based; conditions: read-out: Ct
# [18] = AUC(0 to t) in C57BL/6 mouse at 1 mg/kg, iv measured upto 24 hrs by HPLC-MS analysis; assay type: ADME, organism-based; parameters: time < 24 hrs, dose 1 mg/kg, route iv; conditions: in vivo
# [19] = molecular target: 3',5'-cyclic-AMP phosphodiesterase 4D (Homo sapiens, UniProt Q08499); assay: Inhibition of PDE4D (unknown origin)
# 3',5'-cyclic-AMP phosphodiesterase 4D, sequence (Q08499 whole entry): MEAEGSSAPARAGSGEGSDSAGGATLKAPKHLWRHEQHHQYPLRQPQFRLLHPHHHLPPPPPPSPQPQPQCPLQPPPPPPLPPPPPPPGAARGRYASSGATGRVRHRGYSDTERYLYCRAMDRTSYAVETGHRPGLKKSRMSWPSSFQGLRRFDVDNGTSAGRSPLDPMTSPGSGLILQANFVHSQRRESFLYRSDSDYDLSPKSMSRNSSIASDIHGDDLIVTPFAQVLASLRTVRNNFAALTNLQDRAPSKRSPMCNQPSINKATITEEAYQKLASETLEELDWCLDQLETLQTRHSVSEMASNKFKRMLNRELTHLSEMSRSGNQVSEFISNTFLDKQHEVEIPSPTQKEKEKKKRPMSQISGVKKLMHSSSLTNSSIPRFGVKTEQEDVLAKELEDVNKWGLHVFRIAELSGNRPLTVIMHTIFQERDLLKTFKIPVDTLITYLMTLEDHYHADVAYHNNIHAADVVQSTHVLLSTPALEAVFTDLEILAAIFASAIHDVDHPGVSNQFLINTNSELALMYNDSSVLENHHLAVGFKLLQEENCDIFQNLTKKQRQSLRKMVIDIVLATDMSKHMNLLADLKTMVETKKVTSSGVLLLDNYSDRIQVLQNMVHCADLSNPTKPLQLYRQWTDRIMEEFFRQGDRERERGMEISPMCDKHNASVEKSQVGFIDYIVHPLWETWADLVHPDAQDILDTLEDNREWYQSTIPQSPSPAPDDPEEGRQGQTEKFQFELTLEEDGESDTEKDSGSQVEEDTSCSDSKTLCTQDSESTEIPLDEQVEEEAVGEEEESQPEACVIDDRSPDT
# Cytochrome P450 2C9 = Cytochrome P450 2C9 (Homo sapiens, UniProt P11712); assay: Inhibition of CYP2C9 (unknown origin); assay type: ADME
# [20] = Bioavailability in C57BL/6 mouse at 1 mg/kg, iv and 3 mg/kg, ip measured upto 24 hrs by HPLC-MS analysis; assay type: ADME, organism-based; conditions: in vivo
# [21] = Metabolic stability in dog liver microsomes assessed as intrinsic clearance at 1 uM incubated for 30 mins in presence of NADPH by LC-MS/MS analysis; assay type: ADME, Canis lupus familiaris, Microsome; conditions: read-out: CLH
# Cytochrome P450 3A4 [22] = molecular target: T1, Cytochrome P450 3A4 (Homo sapiens, UniProt P08684); assay: Inhibition of CYP3A4 (unknown origin); assay type: ADME
# T1 sequence (P08684 whole entry): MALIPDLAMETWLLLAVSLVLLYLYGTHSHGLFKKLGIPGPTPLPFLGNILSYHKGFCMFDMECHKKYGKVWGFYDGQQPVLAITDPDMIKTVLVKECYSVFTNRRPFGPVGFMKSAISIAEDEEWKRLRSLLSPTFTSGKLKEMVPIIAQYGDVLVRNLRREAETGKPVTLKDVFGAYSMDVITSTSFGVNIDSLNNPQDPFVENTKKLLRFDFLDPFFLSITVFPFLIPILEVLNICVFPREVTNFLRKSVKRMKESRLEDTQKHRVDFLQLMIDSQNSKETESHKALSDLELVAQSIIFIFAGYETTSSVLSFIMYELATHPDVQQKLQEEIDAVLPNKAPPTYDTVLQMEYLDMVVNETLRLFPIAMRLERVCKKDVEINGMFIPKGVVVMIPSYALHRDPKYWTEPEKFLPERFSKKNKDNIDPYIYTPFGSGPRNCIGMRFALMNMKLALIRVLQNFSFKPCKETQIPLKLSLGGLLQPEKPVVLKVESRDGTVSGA
# Cytochrome P450 2D6 = Cytochrome P450 2D6 (Homo sapiens, UniProt P10635); assay: Inhibition of CYP2D6 (unknown origin); assay type: ADME
# [23] = Ratio of drug concentration in brain to plasma in Sprague-Dawley rat at 3 mg/kg, po measured at 1 hr by HPLC-MS analysis; assay type: ADME, organism-based; conditions: brain and plasma, read-out: BPR
# [24] = Drug concentration in C57BL/6 mouse brain at 30 mg/kg, po measured after 24 hrs; assay type: ADME, organism-based; conditions: read-out: Ct
# [25] = Efflux ratio of apparent permeability across basolateral to apical side over apical to basolateral side in MDCK-MDR1 cells; assay type: ADME, cell-based, Canis lupus familiaris; conditions: dog
# [26] = Drug concentration in C57BL/6 mouse plasma at 30 mg/kg, po measured after 1 hr; assay type: ADME, organism-based
# [27] = Protein binding in Sprague-Dawley rat brain at 5 uM measured for 4 hrs by equilibrium dialysis method based LC/MS/MS analysis; assay type: ADME, tissue-based; conditions: read-out: PB (converted)
# [28] = molecular target: Phosphatidylinositol 4,5-bisphosphate 3-kinase catalytic subunit gamma isoform (Homo sapiens, UniProt P48736); assay: Inhibition of PI3Kgamma (unknown origin)
# Phosphatidylinositol 4,5-bisphosphate 3-kinase catalytic subunit gamma isoform, sequence (P48736 whole entry, canonical isoform): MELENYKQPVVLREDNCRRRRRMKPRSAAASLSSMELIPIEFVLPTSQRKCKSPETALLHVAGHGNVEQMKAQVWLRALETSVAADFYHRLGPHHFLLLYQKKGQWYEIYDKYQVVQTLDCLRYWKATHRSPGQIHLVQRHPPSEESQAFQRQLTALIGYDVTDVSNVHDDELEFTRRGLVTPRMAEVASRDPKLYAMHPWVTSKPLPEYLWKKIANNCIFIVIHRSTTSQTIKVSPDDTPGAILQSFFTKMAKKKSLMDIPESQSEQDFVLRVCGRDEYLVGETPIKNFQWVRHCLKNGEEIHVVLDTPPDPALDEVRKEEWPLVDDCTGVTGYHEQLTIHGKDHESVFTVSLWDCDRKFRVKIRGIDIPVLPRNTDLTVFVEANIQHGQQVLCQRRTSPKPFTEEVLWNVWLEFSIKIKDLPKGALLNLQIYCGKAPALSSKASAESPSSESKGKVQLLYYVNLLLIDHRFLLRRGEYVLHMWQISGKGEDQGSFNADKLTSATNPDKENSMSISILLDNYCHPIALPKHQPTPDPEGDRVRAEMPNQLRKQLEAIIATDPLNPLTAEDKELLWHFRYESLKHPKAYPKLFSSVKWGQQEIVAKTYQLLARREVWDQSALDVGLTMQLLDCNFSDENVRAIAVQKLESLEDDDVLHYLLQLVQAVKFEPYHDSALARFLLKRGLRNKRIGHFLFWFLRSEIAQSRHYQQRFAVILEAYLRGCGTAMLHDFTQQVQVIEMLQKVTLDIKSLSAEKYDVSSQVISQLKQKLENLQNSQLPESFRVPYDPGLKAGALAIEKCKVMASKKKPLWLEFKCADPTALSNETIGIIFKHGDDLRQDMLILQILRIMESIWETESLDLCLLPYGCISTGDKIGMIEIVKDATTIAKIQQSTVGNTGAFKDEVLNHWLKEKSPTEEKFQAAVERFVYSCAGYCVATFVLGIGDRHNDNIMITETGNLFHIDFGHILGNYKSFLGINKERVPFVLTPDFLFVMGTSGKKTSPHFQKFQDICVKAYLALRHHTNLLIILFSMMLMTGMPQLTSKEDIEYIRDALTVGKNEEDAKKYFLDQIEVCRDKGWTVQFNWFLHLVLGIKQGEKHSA
# [29] = Tmax in C57BL/6 mouse at 1 mg/kg, iv and 3 mg/kg, ip measured upto 24 hrs by HPLC-MS analysis; assay type: ADME, organism-based; conditions: in vivo
# [30] = Half life in Sprague-Dawley rat at 3 mg/kg, po and 1 mg/kg, iv measured upto 24 hrs by HPLC-MS analysis; assay type: ADME, organism-based; conditions: in vivo
# [31] = Genotoxicity in human TK6 cells assessed as micronuclei formation in presence of S9 fraction by micronucleus test; assay type: toxicity, subcellular
# [32] = AUC(0 to t) in C57BL/6 mouse at 3 mg/kg, ip measured upto 24 hrs by HPLC-MS analysis; assay type: ADME, organism-based; parameters: time < 24 hrs, dose 3 mg/kg, route ip; conditions: in vivo
# [33] = molecular target: Serine/threonine-protein kinase ATR (Homo sapiens, UniProt Q13535); assay: Inhibition of ATR (unknown origin)-driven CHK1 phosphorylation
# Serine/threonine-protein kinase ATR, sequence (Q13535 whole entry): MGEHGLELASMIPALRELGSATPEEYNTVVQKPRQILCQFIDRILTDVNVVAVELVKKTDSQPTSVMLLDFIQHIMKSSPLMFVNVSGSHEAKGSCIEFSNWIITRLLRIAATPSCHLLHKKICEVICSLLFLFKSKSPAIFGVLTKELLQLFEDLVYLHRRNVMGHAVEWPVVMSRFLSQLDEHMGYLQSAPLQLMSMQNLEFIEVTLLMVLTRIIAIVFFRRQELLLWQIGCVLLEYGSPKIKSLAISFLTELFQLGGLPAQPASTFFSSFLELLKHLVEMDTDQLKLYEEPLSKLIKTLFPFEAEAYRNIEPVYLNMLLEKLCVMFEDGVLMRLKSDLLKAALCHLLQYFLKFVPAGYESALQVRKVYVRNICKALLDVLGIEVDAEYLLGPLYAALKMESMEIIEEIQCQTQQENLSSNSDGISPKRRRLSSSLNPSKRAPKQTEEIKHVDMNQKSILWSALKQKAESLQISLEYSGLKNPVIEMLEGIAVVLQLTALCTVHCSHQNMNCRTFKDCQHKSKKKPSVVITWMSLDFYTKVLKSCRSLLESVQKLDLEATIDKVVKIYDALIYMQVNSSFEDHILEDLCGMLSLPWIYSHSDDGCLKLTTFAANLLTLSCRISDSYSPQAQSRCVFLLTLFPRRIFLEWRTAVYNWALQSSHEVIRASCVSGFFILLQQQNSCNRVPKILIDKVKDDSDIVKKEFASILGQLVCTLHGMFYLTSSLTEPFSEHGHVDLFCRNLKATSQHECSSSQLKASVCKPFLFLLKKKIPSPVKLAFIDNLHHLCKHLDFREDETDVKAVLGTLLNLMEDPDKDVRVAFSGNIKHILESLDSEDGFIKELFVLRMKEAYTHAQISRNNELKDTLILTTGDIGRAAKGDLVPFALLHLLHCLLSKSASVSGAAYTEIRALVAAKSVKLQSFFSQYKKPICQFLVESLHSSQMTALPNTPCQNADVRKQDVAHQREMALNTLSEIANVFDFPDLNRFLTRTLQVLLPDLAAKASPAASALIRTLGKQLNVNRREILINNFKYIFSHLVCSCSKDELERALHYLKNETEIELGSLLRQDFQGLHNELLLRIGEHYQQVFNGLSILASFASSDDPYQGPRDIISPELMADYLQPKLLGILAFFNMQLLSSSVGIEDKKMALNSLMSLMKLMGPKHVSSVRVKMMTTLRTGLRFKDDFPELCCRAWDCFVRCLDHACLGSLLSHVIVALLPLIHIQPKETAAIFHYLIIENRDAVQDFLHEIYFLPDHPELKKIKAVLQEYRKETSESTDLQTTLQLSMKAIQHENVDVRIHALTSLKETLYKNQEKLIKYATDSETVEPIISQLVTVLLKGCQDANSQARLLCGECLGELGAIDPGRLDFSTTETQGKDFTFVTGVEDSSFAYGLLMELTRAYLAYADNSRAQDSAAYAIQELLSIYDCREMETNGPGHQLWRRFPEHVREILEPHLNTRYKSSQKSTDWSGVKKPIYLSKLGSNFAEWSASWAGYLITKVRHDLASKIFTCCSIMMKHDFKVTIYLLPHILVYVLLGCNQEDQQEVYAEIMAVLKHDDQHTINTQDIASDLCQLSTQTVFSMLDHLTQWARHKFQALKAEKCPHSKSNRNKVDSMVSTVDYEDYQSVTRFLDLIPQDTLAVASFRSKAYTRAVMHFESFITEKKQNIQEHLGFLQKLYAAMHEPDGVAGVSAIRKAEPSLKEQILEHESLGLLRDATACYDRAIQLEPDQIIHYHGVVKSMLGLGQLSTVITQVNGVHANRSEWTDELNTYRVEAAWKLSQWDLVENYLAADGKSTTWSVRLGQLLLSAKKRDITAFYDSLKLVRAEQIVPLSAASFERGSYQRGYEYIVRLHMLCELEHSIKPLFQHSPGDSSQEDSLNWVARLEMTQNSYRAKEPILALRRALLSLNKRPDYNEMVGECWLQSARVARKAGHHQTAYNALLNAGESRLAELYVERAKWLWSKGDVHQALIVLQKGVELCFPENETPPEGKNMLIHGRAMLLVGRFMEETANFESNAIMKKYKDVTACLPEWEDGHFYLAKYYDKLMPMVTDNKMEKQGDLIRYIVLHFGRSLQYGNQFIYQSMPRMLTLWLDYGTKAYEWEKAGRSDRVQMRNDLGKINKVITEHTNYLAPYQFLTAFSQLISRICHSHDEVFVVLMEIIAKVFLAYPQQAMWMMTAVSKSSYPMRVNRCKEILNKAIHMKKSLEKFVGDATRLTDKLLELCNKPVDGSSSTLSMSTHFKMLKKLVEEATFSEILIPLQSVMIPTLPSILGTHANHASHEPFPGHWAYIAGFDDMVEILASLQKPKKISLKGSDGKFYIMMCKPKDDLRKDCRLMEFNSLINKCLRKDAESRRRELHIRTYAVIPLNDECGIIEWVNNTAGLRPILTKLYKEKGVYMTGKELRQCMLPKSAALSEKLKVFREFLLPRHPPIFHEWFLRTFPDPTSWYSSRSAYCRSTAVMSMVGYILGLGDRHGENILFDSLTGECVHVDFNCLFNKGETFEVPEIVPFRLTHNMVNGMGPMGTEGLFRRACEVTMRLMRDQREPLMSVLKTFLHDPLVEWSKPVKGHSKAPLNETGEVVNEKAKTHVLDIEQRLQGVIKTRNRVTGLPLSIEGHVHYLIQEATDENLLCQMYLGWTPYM
# [34] = Solubility of compound at pH 6.8; assay type: physicochemical; conditions: buffer
# Cytochrome P450 3A4 [35] = molecular target: T1, Cytochrome P450 3A4; assay: Inhibition of CYP3A4 (unknown origin) assessed as Kobs; assay type: ADME
# [36] = MRT(0 to t) in Sprague-Dawley rat at 3 mg/kg, po and 1 mg/kg, iv measured upto 24 hrs by HPLC-MS analysis; assay type: ADME, organism-based; conditions: in vivo
SMILES,concentration at 3 h [1] [µM],Activity [2],Cmax [3] [µM],concentration at 3 h [4] [µM],AUC(0-t) at 24 h [5] [µM·h],concentration at 24 h [6] [µM],Vd [7] [L/kg],Kp at 3 h [8],Tmax [9] [h],Cmax [10] [µM],microsomal CLint at 1 µM [11] [µL/min/mg],microsomal CLint at 1 µM [12] [µL/min/mg],"fraction unbound at 4 h, 5 µM [13]",concentration at 3 h [14] [µM],AUC(0-t) at 24 h [15] [µM·h],microsomal CLint at 1 µM [16] [µL/min/mg],concentration at 1 h [17] [µM],IC50 [19] [µM],IC50 (Cytochrome P450 2C9) [µM],bioavailability [20] [%],other results
C[C@@H]1COCCN1c1cc(N2CCOC[C@@H]2C)nc2[nH]c(-c3cscn3)nc12,5.53,Toxic,1.73,6.32,6.45,7.02,2.8,0.75,1.5,1.92,21,3.4,0.068,8.42,2.39,13,13.1,6.3,> 50,112,"AUCt ([18]; mouse, 24 h): 10.377 µM·h; microsomal CLint at 1 µM [21]: 10 µL/min/mg; IC50 (Cytochrome P450 3A4 [22]): > 50 µM; IC50 (Cytochrome P450 2D6): > 50 µM; Kp at 1 h [23]: 0.33; concentration at 24 h [24]: 4.65 µM; efflux ratio [25]: 0.87; concentration at 1 h [26]: 10.2 µM; fraction unbound at 4 h, 5 µM [27]: 0.086; IC50 [28]: > 10 µM; Tmax [29]: 1.5 h; half-life [30]: 3 h; Activity [31]: Non-Toxic; AUC(0-t) at 24 h [32]: 11.7 µM·h; IC50 [33]: 14.4 µM; solubility [34]: 20 µg/mL; Kobs (Cytochrome P450 3A4 [35]): 0.021 min⁻¹; MRT last at 24 h [36]: 2.2 h"
C[C@@H]1COCCN1c1cc(N2CCOC[C@@H]2C)nc2[nH]c(-c3ccccn3)nc12,2.16,Non-Toxic,5.05,2.72,29.6,1.12,2.6,0.65,1.3,1.26,27,22,0.065,4.16,8.09,24,4.05,17,> 50,98,"AUC(0-t) at 24 h ([18]; C57BL/6, mouse): 2.22 µM·h; microsomal CLint at 1 µM [21]: 19 µL/min/mg; IC50 (Cytochrome P450 3A4 [22]): > 50 µM; IC50 (Cytochrome P450 2D6): > 50 µM; Kp at 1 h [23]: 0.72; concentration at 24 h [24]: 0.79 µM; efflux ratio [25]: 0.48; concentration at 1 h [26]: 3.93 µM; fraction unbound at 4 h, 5 µM [27]: 0.035; IC50 [28]: > 10 µM; Tmax [29]: 0.4 h; half-life [30]: 2.6 h; Activity [31]: Non-Toxic; AUC(0-t) at 24 h [32]: 6.66 µM·h; IC50 [33]: 17.2 µM; solubility [34]: 180 µg/mL; Kobs (Cytochrome P450 3A4 [35]): 0.032 min⁻¹; MRT last at 24 h [36]: 2.3 h"
